What all share (assay): NCI tumour cell line growth inhibition, 48 h
In test [1] the test system is SNB-78 CNS.
Test [2] concerns DMS 114 small cell lung.
In test [3] the test system is KM20L2 colon.
Test [4] concerns SN12K1 renal.
In test [5] the test system is XF 498 CNS.
Test [6] has as its system LXFL 529 NSCLC.
Test [7] relates to P388/ADR leukemia.
Test [8] relates to HOP-18 NSCLC.
Test [9] deals with DMS 273 small cell lung.
Test [10] deals with MDA-N.
Test [11] deals with RXF-631 renal.

SMILES strings stand for the structures. “And” between values parts separate entries of the source, which are not always exact repeats. Equal values may be shown once.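 Protocol summary: plate cells (96-well), add compound at 5 concentrations, incubate 48 h, interpolate endpoints linearly. GI50 is the concentration that inhibits growth by half. At the TGI there is no net growth.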 Where only a bound is given, the exact number is not on record here.

We go through 7 compounds from PubChem BioAssay (NCI).

With `COc1cc(C2c3cc4c(cc3[C@@H](Nc3cccc(O)c3)C3COC(=O)[C@H]23)OCO4)cc(OC)c1O` (stereo partly specified), the GI50 was 0.906 µM in test [1]; 0.49 µM in test [2]; 0.52 µM in [5]; 0.85 µM in [6]; 0.404 µM in [9]. For the same compound, the TGI in test [1] was 65.1 µM; in test [2], 5.21 µM; in test [3] it was 17.6 µM; in test [4], 7.81 µM; in test [5] it was 0.985 µM and 8.34 µM; in test [6], 24.9 µM. In addition, the TGI turned out to be 1.65 µM in [7], 33 µM in test [8], 6 µM in test [9] and 20.5 µM in [10].
Consider `CC(C)=C1CCC(CN2CCCC2)C1=O` (stereo unspecified), for which the TGI in [1] was above 100 µM; in [11] it was above 100 µM; in test [2], 37 µM; in [3] it was above 100 µM; in test [5] it was 34 µM; in test [6], 32.2 µM. In addition, the TGI was 32.7 µM in test [8] and above 100 µM in test [9].
Consider `CC[C@@]1(O)C(=O)OCc2c1cc1n(c2=O)Cc2cc3c(NC(C)=O)c(O)ccc3nc2-1`, for which the GI50 in test [1] was 28.9 µM; in [11], 4.47 µM; in test [2], 0.353 µM; in test [3], 16.3 µM; in [5] it was 5.39 µM; in [6] it was 12.5 µM. The GI50 is 7.57 µM in test [8] and 0.296 µM in test [9]. Besides, the TGI in [1] was above 100 µM; in [11], above 100 µM; in test [2], 7.58 µM; in [3] it was above 100 µM; in test [5], 51 µM; in test [6] it was above 100 µM. The TGI in test [8] is above 100 µM; in test [9] it was 8.33 µM.
Regarding `COc1ccccc1NC(=O)C(=O)C1C(=O)Nc2ccccc2S1=O` (stereo unspecified), the TGI in test [1], in test [11], in test [2], in test [3], in test [5] and in [6] was above 100 µM throughout. The TGI in [8] and in [9] was above 100 µM each time.
As for `COC(=O)C(=O)C(C(=O)C(=O)Nc1ccccc1C(N)=O)c1nc2ccc(C(=O)c3ccccc3)cc2[nH]c1=O` (stereo unspecified), the TGI in [1], in [11], in [2], in test [3], in [5] and in [6] was above 100 µM in each case. In addition, the TGI in test [8] and in test [9] was above 100 µM each time.
`O=C1c2cccc3cccc(c23)C(=O)N1CCCN1CCN(CCCN2C(=O)c3cccc4cccc(c34)C2=O)CC1`: the TGI in test [1], in test [11], in [2], in test [3], in test [5] and in test [6] was above 100 µM throughout. For the same compound, the TGI in test [8] and in test [9] was above 100 µM each time.
For `COC(=O)C1CCC(=NC2c3ccccc3-c3ccccc32)N1` (stereo unspecified), the TGI in [1], in test [11], in test [2], in [3], in test [5] and in [6] was above 100 µM in each case. For the same compound, the TGI in test [8] and in test [9] was above 100 µM in each case.
